Reference: US20220257706A1, “EPIDERMAL GROWTH FACTOR RECEPTOR (EGFR) LIGANDS” (NANYANG TECHNOLOGICAL UNIVERSITY, priority 2019, published 2022)

Key:
HaCaT cells = assay type: cell-based, human
Experimental: (§1) HaCaT (human keratinocyte), HUVEC-CS (endothelial cells) cells were cultured in Dulbecco's modification of Eagle's medium (DMEM) supplemented with 10% fetal bovine serum and 100 U/mL of penicillin and streptomycin. Normal Human Epidermal Keratinocytes adult purchased from Lifeline® cell technology were cultured in Lifeline® DermaLife K Medium. They were grown in a 5% CO2 humidified incubator at 37° C. HaCaT cells were stably transfected with pGL4.33[luc2P/SRE/Hygro] (Promega) and selected using 250 μg/mL hygromycin. Stable HaCaT cells expressing SRE luciferase reporter were maintained with 250 μg/mL hygromycin.
(§2) Cell proliferation was determined using crystal violet staining. […] 3417-Da-peptide aB1 is a CRP isolated from Achyranthes bidentata with the amino acid sequence […] (SEQ ID NO:11). Crystal violet staining was performed as previously described. Briefly, after the incubation period, the wells were fixed with 4% buffered paraformaldehyde for 20 min. The cells were then stained with 0.25% crystal violet in 20% methanol for 15 min. The excess crystal violet stain was rinsed with distilled water for 4-5 times and air-dried. Glacial acetic acid (10%) in Milli-Q water was added to extract the crystal violet stain. The absorbance was then measured at 595 nm using a microplate reader (Tecan Infinite® 200 Pro, Switzerland).

[1] = system: primary human keratinocytes; experiment: Primary human keratinocyte proliferation (crystal violet); assay type: cell-based; details: 72 h, crystal violet assay
Experimental: as §1, §2

HUVEC-CS cells = experiment: Endothelial tube formation assay; assay type: cell-based; details: data not shown
Experimental: Endothelial tube formation assay was performed using a μ-slide (ibidi, Germany). Briefly, 10 μL of gel matrix (BD Matrigel™ Basement Membrane Matrix) was casted onto each μ-slide well and left to solidify. […] After incubation for 2 h, the wells were photographed using inverted phase-contrast microscope. Images were analyzed for the numbering of branching points using the Wimasis image analysis platform.

C57BL/6 mice = experiment: Full-thickness splinted excisional wound healing in C57BL/6 mice; assay type: in vivo, mouse; details: topical, three consecutive days; bleogen pB1 10 nmol/wound, EGF 1 nmol/wound; vs saline
Experimental: C57BL/6 mice were obtained from Vital Rital Laboratories (Beijing, China). […] All experiments were approved and performed in accordance with the institutional guidelines of the Experimental Animal Center of the Chinese Academy of Medical Science (Beijing, China).
(§3) Full-thickness 5-mm splinted excisional wounding of mice was performed. Briefly, mice were anesthetized using an intraperitoneal injection of sodium pentobarbital (50 mg kg^−1). The hair of the back was shaved with an electric clipper followed by a depilatory cream. Using a 5-mm-diameter sterile biopsy punch, symmetrical full-thickness excisional wounds were created. Splints were placed around the wound using adhesive glue and secured with four interrupted sutures. The wounds and splints were covered with Tegaderm (3M, US). At indicated days within the 14 days post-injury course, wound diameters were measured. The size of wound was calculated from the average of two diameter measurements along the x and y axis.
Full-thickness 5 mm splinted excisional wounding of mice was performed on C57BL/6 mice as described above.

[2] = system: STZ-induced diabetic C57BL/6 mice; experiment: Full-thickness splinted excisional wound healing in streptozotocin-induced diabetic C57BL/6 mice; assay type: in vivo, mouse; details: 1 nmol/wound topical, five consecutive days
Experimental: as §3
Diabetes was induced into C57BL/6 mice by two intraperitoneal injection (80 mg/kg) of STZ at day 1 and 5. Starting from day 8, blood glucose was monitored regularly for two weeks. […] Blood glucose was also monitored at day 14 post-injury to ensure the mice are diabetic.

[3] = system: serum response element (SRE); experiment: SRE luciferase reporter assay in stable HaCaT cells; assay type: cell-based, human; details: 6 h incubation
Experimental: as §1
Briefly, the cells were cultured in a white 96-well plates to achieve 90% confluency. […] The luciferase assay was performed using the ONE-Glo EX Luciferase Assay System (Promega, US) as per the manufacturer's instructions. Luminescence was measured using a microplate reader (Tecan Infinite® 200 Pro, Switzerland).

c-fos = experiment: Gene expression analysis (qPCR) of c-fos in HaCaT cells; assay type: cell-based, human; details: 2 h treatment
Experimental: (§4) Total RNA was extracted from HaCaT and primary human keratinocytes using PureLink™ RNA mini kit (Thermo Fisher Scientific, US). First-strand cDNA was synthesised from 600 ng of total RNA using SuperScript™ II Reverse Transcriptase and Oligo(dT)12-18 (Thermo Fisher Scientific, US) according to the manufacturer's instructions. Quantitative PCR (qPCR) was performed with iTaq Universal SYBR Green Supermix (Bio-Rad, US) on a CFX96 Touch Real-Time PCR Detection System (Bio-Rad, US) for 40 cycles. PCR reaction (20 μL): 3 μL cDNA, 1 μL primer mix (10 μM), 6 μL DEPC-treated water and 10 μL mastermix. […] GAPDH was used as a housekeeping gene for normalization. Fold changes of gene expressions with c-fos and c-Jun were calculated using the 2^−ΔΔCT method.

c-Jun = experiment: Gene expression analysis (qPCR) of c-Jun in HaCaT cells; assay type: cell-based, human; details: 2 h treatment
Experimental: as §4

[4] = Heat stability (100° C., RP-HPLC); assay type: physicochemical; details: 100° C.; read-out: calculated t1/2, heat treatment
Experimental: Samples were collected at various time points (0, 30, 60, and 120 min).

Human serum stability = details: 25% human serum
Experimental: The test samples were incubated at 37° C. Samples were collected at various time points. The collected samples were subjected to protein precipitation with 100% ethanol and centrifugation at 180,000 g for 5 min at 4° C. The supernatant was collected for analysis.
All collected samples from various stability assays were analyzed by RP-HPLC with a linear gradient of mobile phase A (0.05% TFA/H2O) and mobile phase B (0.05% TFA/ACN) on aeris peptide XB-C18 column (Phenomenex, US). The resulting peaks were collected and identified by MALDI-TOF MS. The results were expressed as percentage of initial concentration using the peak area of the HPLC profile.

EGFR = EGFR (Homo sapiens, UniProt P00533); experiment: Immunoprecipitation / western blot of EGFR tyrosine phosphorylation in HaCaT cells; assay type: cell-based; design: endogenous in cells; host or cells: HaCaT; details: 5 μM
Experimental: Immunoprecipitation was performed using EGFR (D38B1) rabbit monoclonal antibodies conjugated to magnetic beads (Cell Signaling, US). Briefly, the magnetic beads were washed with PBS three times and 50 μg HaCaT cell lysate was added to each tube and allowed to incubate overnight at 4° C. with rotation. After incubation, the magnetic beads were washed five times with PBS. A 6× loading dye with β-mercaptoethanol was added to the resin and heated for 10 min at 85° C. The resultant mixture was centrifuged at 14000 g×1 min and resolved using 10% SDS-PAGE at a 100 V constant for 120 min. Blot transfer was performed on a PVDF membrane (GE healthcare, Sweden) at 250 mA for 120 min on ice. The blot was blocked with 5% BSA TBST before incubating overnight at 4° C. with anti-phosphotyrosine-HRP (R&D systems, US) or anti-EGFR anti-rabbit antibody (1:1000 in 5% BSA TBST; Cell Signaling, US). After incubation, the membrane was washed with TBST at room temperature for three times at 10 min each. The blot was then incubated with secondary anti-rabbit horseradish peroxidase (HRP) (1:5000 in 5% BSA TBST) and was incubated for another 1 h at room temperature. The blot was washed five times 10 min each with TBST at room temperature before the addition of chemiluminescence substrate (Advansta, US) and exposure on X-ray film (Fujifilm, Japan).

EGFR, sequence (P00533 25-1210): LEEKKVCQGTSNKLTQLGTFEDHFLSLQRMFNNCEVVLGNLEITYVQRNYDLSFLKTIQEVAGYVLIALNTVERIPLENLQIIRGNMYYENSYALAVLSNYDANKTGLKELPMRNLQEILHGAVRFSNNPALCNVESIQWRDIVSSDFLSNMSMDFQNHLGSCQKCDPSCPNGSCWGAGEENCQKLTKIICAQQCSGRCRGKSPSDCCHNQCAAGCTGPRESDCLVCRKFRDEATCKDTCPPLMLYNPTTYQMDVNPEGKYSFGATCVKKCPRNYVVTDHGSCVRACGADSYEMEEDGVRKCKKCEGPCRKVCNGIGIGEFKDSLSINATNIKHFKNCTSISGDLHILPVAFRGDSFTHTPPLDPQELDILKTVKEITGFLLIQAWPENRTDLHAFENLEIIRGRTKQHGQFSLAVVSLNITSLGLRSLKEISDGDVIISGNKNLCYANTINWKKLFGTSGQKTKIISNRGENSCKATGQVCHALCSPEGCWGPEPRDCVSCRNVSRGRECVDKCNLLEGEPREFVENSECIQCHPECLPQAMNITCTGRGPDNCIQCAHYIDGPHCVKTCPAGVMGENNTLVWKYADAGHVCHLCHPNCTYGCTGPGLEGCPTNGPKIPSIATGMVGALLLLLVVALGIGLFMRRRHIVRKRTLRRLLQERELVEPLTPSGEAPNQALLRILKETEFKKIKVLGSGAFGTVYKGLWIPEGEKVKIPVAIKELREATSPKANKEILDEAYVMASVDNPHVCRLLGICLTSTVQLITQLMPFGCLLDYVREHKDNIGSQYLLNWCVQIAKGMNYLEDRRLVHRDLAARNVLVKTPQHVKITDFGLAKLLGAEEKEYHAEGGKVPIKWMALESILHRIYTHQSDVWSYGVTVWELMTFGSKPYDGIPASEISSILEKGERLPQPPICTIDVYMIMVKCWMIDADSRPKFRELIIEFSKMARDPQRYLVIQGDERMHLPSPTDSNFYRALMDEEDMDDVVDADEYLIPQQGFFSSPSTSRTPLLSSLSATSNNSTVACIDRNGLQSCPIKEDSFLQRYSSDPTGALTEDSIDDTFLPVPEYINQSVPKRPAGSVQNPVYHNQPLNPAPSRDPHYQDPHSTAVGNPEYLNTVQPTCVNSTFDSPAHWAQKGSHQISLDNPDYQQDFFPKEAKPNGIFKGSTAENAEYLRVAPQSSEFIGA

Q: Which results are given for CC[C@H](C)[C@@H]1NC(=O)[C@H](CCC(=O)O)NC(=O)[C@H]([C@@H](C)O)NC(=O)[C@@H]2CSSC[C@@H]3NC(=O)[C@H](Cc4ccccc4)NC(=O)[C@H](CC(N)=O)NC(=O)[C@H](CO)NC(=O)[C@H](CSSC[C@H](NC(=O)[C@@H](N)CCC(N)=O)C(=O)N[C@@H](CCCCN)C(=O)N4CCC[C@H]4C(=O)N[C@@H](CC(N)=O)C(=O)NCC(=O)N[C@@H](C)C(=O)N[C@@H](CCCCN)C(=O)N2)NC(=O)[C@H](CSSC[C@@H](C(=O)N[C@@H](C)C(=O)N[C@@H](CC(N)=O)C(=O)N[C@@H](CCCNC(=N)N)C(=O)O)NC(=O)[C@H]([C@@H](C)O)NC(=O)CNC(=O)[C@H](CO)NC(=O)[C@H](CCCCN)NC(=O)[C@H](CCC(N)=O)NC(=O)CNC(=O)[C@H](C)NC(=O)[C@H](Cc2ccc(O)cc2)NC(=O)[C@H](CCCNC(=N)N)NC(=O)[C@H](CC(C)C)NC3=O)NC(=O)[C@@H]2CCCN2C(=O)[C@@H]2CCCN2C(=O)[C@H]([C@@H](C)CC)NC(=O)[C@H](CO)NC1=O [bleogen pB1]?
A: proliferative activities on HaCaT cells, native versus synthetic (HaCaT cells): identical proliferative activities; EC50 (HaCaT cells; 72 h): 130 nM; difference in mitogenic potency between EGF and pB1 (HaCaT cells; HaCaT cell proliferation EC50): 100 fold; EGFR dependence of proliferative/mitogenic effect (HaCaT cells; co-incubation with EGFR neutralizing antibody (clone LA1)): EGFR-dependent; proliferation of primary human keratinocytes [1]: promotes the proliferation; endothelial cell tube formation (HUVEC-CS cells): accelerate; wound healing, full-thickness excision wound model in C57 mice (C57BL/6 mice): accelerated wound healing from day 3 to day 11; wound healing rate vs vehicle control in STZ-induced diabetic mice [2]: healed at a significantly faster rate starting from day 4 post-injury; SRE-luciferase activity [3]: dose-dependently, increases the luciferase activity; mRNA expression of c-fos (c-fos): significantly upregulate; mRNA expression of c-Jun (c-Jun): significantly upregulate; half-life at 0.1 M [4]: > 0.347 days; half-life at 0.1 M (Human serum stability): > 33.3 days; phosphorylation of EGFR (EGFR): induces the phosphorylation
